Reference: patent US20200368322A1, “METHODS OF IDENTIFYING AND USING AGENTS FOR TREATING DISEASES ASSOCIATED WITH INTESTINAL BARRIER DYSFUNCTION” (Yeda Research and Development Co. Ltd., priority 2018, published 2020)
“Also recorded” adds a separate entry of the source.

Key:
[1] = Intestinal inflammatory state (H&E staining, colonic cytokine gene expression); type: in vivo, mouse; details: STZ-treated mice vs controls
Salmonella Typhimurium = Salmonella Typhimurium infection; type: in vivo, mouse; details: STZ-treated mice, oral infection
Experimental: For oral infections, mice were pretreated with 50 mg/ml streptomycin one day prior to oral gavage of 10^8 CFU of SPI-II-deficient Salmonella Typhimurium (49). For systemic infections, mice were injected 10^4 CFU of Salmonella Typhimurium by intraperitoneal injection as previously described (50). One week after infection, colonization was assessed by bacterial plating on LB streptomycin plates, incubated overnight at 37° C., and bacterial colonies were enumerated the following day, normalizing them to the tissue weight.

[2] = Serum glucose measurement; type: in vivo, mouse
Experimental: (§1) To induce hyperglycemia, streptozotocin (STZ, Sigma-Aldrich) was diluted freshly in PBS and injected i.p. at 100 mg/kg at two consecutive days. Control mice were injected with PBS. Serum glucose measurements were performed using glucose strips (Perrigo). Hyperglycemic mice were used for further experimentation 2-3 weeks after STZ injection). For continuous insulin administration, ALZET osmotic pumps were used. Pumps were implanted subcutaneously in the back of the mice for 4 weeks. Insulin was delivered at 0.25 U/day. 2-deoxyglucose (2-DG) was injected i.p. twice daily at 5 mg per injection as previously described (47). Injections were performed for 10 consecutive days. Leptin antagonist was administered daily by intraperitoneal injection of 25 mg/kg as previously described (18).

[3] = tested on: colonic epithelial barrier; experiment: Trans-epithelial flux (Ussing chamber, FITC-dextran); type: in vivo, mouse; details: STZ-treated mice, steady-state conditions
Experimental: On the day of the assay, 4 kDa fluorescein isothiocyanate (FITC)-dextran was dissolved in phosphate buffered saline (PBS) to a concentration of 80 mg/ml. Mice were fasted for 4 hours prior to gavage with 150 μl dextran. Mice were anesthetized 3 hours following gavage and blood was collected, centrifuged at 1,000×g for 12 min at 4° C. Serum was collected and fluorescence was quantified at an excitation wavelength of 485 nm and emission wavelength of 535 nm.
Epithelial resistance was measured using an Ussing chamber system (Warner Instruments P2300) according to the manufacturer's instructions. In brief, EasyMount chambers were calibrated, colonic tissue was excised from mice and immediately mounted, and voltage clamp recordings were performed. Tissues were maintained at 37° C. in physiological salt solution throughout the duration of the recording.

[4] = tested on: intestinal epithelial adherence junctions; experiment: Immunofluorescence staining of colon junctions (E-cadherin, ZO-1); type: in vivo, mouse
Experimental: (§2) Colon samples were extensively washed and fixed and 4% paraformaldehyde. Samples were washed, paraffin-embedded and sectioned. Paraffin sections were de-paraffinized and antigen-retrieved in 10 mM sodium citrate, pH 6. Samples were incubated in PBS containing 20% (v/v) normal horse serum and 0.2% (v/v) Triton X-100 for 1 h; and then incubated over-night with rabbit anti-ZO-1 (Invitrogen 40-2200) primary antibody or rabbit anti E-cadherin (Cell Signaling 24E10). Sections were washed and incubated for 1 hour with alexa 488-conjugated donkey anti Rabbit antibody. Alternatively, sections were stained with Ki67 to indicate proliferating cells.

Citrobacter rodentium [5] = experiment: Citrobacter rodentium infection (bioluminescence, tissue CFU), Example 1; type: in vivo, mouse
Experimental: as §1
Mice were infected by oral gavage with 200 μl of an overnight culture of LB containing approximately 1×10^9 colony-forming units (CFU) of a kanamycin-resistant, luciferase-expressing derivative of C. rodentium DBS100 (ICC180) as previously described (16). For in vivo bioluminescent imaging, mice were anesthetized with Ketamine/Xylazine. Bioluminescence was quantified using an IVIS2000 instrument and Living Image software (Perkin Elmer). For ex vivo luminescence analysis, colons were resected, extensively washed from all fecal matter and immediately imaged. For CFU counts, tissues were collected, weighed and homogenized in 1 ml of sterile PBS. Tissue homogenates were serially diluted in PBS and plated on to LB kanamycin plates, incubated overnight at 37° C., and bacterial colonies were enumerated the following day, normalizing them to the tissue weight.

[6] = tested on: intestinal epithelial cells; experiment: Epithelial turnover (Ki67 staining, cell viability by flow cytometry); type: in vivo, mouse; details: STZ-treated mice vs controls
Experimental: as §2
For viability measurements, isolated intestinal epithelial cells were stained with EpCAM, CD45 and propidium iodide. Cells were analyzed on a BD-LSRFortessa cytometer. All antibodies were obtained from Biolegend.

intestinal microbiota = experiment: Taxonomic microbiota analysis (16S rDNA sequencing); type: in vivo, mouse; details: hyperglycemic (STZ-treated) mice, insulin treatment
Experimental: Frozen fecal samples were processed for DNA isolation using the MoBio PowerSoil kit according to the manufacturer's instructions. For the 16S rRNA gene PCR amplification, 1 ng of the purified fecal DNA was used for PCR amplification. Amplicons spanning the variable region V3/4 of the 16S rRNA gene were generated by using primers: Fwd 5′-[…]-3′ (SEQ ID NO: 1), Rev 5′-[…]-3′ (SEQ ID NO: 2). The reactions were subsequently pooled and cleaned (PCR clean kit, Promega), and the PCR products were then sequenced on an Illumina MiSeq with 500 bp paired-end reads. The reads were then processed using the QIIME analysis pipeline as described (55, 56). In brief, fasta quality files and a mapping file indicating the barcode sequence corresponding to each sample were used as inputs, reads were split by samples according to the barcode, taxonomical classification was performed using the RDP-classifier, and an OTU table was created. Closed-reference OTU mapping was employed using the Greengenes database. Rarefaction was used to exclude samples with insufficient count of reads per sample. Sequences sharing 97% nucleotide sequence identity in the 16S region were binned into operational taxonomic units (97% ID OTUs). For beta-diversity, unweighted UniFrac measurements were plotted according to the two principal coordinates based on 10,000 reads per sample. […]

[7] = tested on: microbial pattern recognition receptor (PRR) ligands; experiment: Quantification of microbial products at systemic sites (PRR reporter cell lines); type: in vivo, mouse; details: STZ-treated mice given the agent (insulin 0.25 U per day; 2-DG i.p. twice daily 5 mg)
Experimental: as §1, with “(18). The following PRR reporter cell lines were obtained from Invivogen (HEK-Blue TLR and NLR reporter cell lines): TLR2, TLR3, TLR4, TLR5, TLR7, TLR9, NOD1, NOD2. Extracts from spleen, liver, and serum were homogenized and added to reporter cell lines incubated with HEK-Blue detection medium (Invivogen) according to the manufacturer's instructions.” for “(18).”

[8] = tested on: focal adhesions of Caco2 cells; experiment: Caco2 cell-matrix focal adhesions (paxillin staining); type: cell-based, human; details: 10 mM acetyl-proline, 1 mM putrescine, 10 mM histamine, 5 mM spermine
Experimental: (§3) CaCo-2 cells were purchased from ATCC. Cells were routinely grown in regular tissue culture medium (DMEM, 10% FCS, penicillin/streptomycin, GlutaMAX). For experiments with differing glucose concentrations, cells were routinely cultured in low-glucose DMEM (1 g/l glucose). Cells were seeded onto 96-well glass-bottom plates coated with either fibronectin or collagen 70 000 cells/well and allowed to grow for 24 hours to form confluent monolayer before indicated treatments.
(§4) For high resolution images of manually selected representative fields, a DeltaVision wide field fluorescent microscope (GE Healthcare) equipped with 40×UPlanFLN or 60×/1.42 PlanApo N oil objective (Olympus) was used. For multi-well plate scanning, the following automated imaging stations were used: DeltaVision microscope with plate scanning regiment, Hermes imaging station (IDEA bio-Medical) or ImagExpress microXL imaging station (Molecular Devices) equipped by 40× air objectives. In all cases in order to cover the curvature of apical surface of epithelial monolayer 5 μm thick z-stack was acquired around the tight junction plane (identified by best focus algorithm) and resulting image was generated as a maximum projection of all optical sections.

Caco2 cells [9] = details: 10 mM histamine
Experimental: For immunofluorescent staining, cells were permeabilized with 0.5% Triton ×100 in 3% paraformaldehyde for 3 minutes and fixed with 3% paraformaldehyde for an additional 30 minutes. Tight junction labeling was performed with either rabbit anti-cingulin antibodies or with anti-zo1 mouse monoclonal antibodies (BD Transduction Laboratories). Focal adhesions were labeled with either anti-paxillin mouse monoclonal antibodies (BD Transduction Laboratories) or with anti-zyxin rabbit polyclonal antibodies. Adherens junctions were labeled with anti-β-catenin rabbit polyclonal antibodies (Sigma). The following secondary, fluorescently labeled antibodies (Invitrogen) were used: Alexa Fluor 488 goat anti-mouse or anti-rabbit antibodies for tight junction visualization and Alexa Fluor 647 goat anti-mouse or anti-rabbit antibodies for focal adhesions or adherens junctions visualization. Actin was labeled with TRITC-phalloidin (Sigma) and nuclei with DAPI.

[10] = tested on: tight junctions of Caco2 cells; experiment: Caco2 tight junction morphology (cingulin or ZO-1 staining, tortuosity); type: cell-based, human
Experimental: as §3, §4
Cell images were segmented using Morphological Segmentation ImageJ plug-in and junction tortuosity was calculated as a ratio between junction length and Euclidian distance between its ends.

Caco2 cells [11] = experiment: Traction force microscopy; type: cell-based, human; details: Caco2 islands on polyacrylamide hydrogels, 24 hours treatment
Experimental: SoftTrac 6 well plates with pre-made collagen coated 12 kPa hydrogels containing embedded 0.2 μm fluorescent beads were purchased from Matrigen. 200,000 cells per well were plated and allowed to grow for 24 hours to form epithelial islands, treated with the indicated metabolite for another 24 hours and live-imaged using DeltaVision microscope equipped with environmental chamber. After acquisition of cell and fluorescent bead images in steady state conditions, cells were detached with trypsin and imaging of beads was repeated in a relaxed state. Displacement map generation and force calculations were performed using MatLab script described in Butler et al. Am J Physiol Cell Physiol. 2002.

Citrobacter rodentium [12] = type: in vivo, mouse; details: putrescine plus 30 mg/ml taurine in drinking water
Experimental: For putrescine treatment, mice received putrescine by oral gavage with a dose of 200 mg/kg twice daily for 10 days prior to and during DSS treatment or Citrobacter rodentium infection.
A kanamycin-resistant and luciferase-expressing derivative of Citrobacter rodentium DBS100 (ICC180) was used for infection as previously described (Thaiss et al., Science. 2018 Mar. 23; 359(6382):1376-1383).
Mice were infected with 200 μl solution containing approximately 1×10^9 colony-forming units (CFU) of overnight cultured bacteria by oral gavage. Infection was monitored by enumerating stool CFU and measuring abdominal bioluminescent. For in vivo bioluminescent imaging, mice were anesthetized and bioluminescence was measured using an IVIS2000 instrument and Living Image software (Perkin Elmer). For ex vivo luminescence quantification, the whole colons were dissected, extensively washed from all luminal contents, longitudinally cut open and immediately imaged. For CFU counts, stool or tissues were collected, weighed and homogenized in sterile phosphate buffered saline (PBS−/−). Homogenates were then serially diluted in PBS−/− and plated on LB kanamycin plates, incubated overnight at 37° C. Bacterial CFUs were counted the next day, normalizing them to the stool or tissue weight.

[13] = mice treated with the agent alone

Compound: CN(N=O)C(=O)N[C@H]1C(O)O[C@H](CO)[C@@H](O)[C@@H]1O (mixture of isomers) [STZ, streptozotocin]
- inflammatory state in the intestine [1]: did not provoke an overt inflammatory state
- intestinal luminal growth of Salmonella (Salmonella Typhimurium): comparable to vehicle-treated controls
- systemic colonization by Salmonella (Salmonella Typhimurium): enhanced systemic colonization
- blood glucose levels [2, 13]: hyperglycemia was induced
- trans-epithelial flux [3]: enhanced trans-epithelial flux
- intestinal epithelial adherence junctions ([4]; STZ-treated mice, steady-state conditions): dysfunction of intestinal epithelial adherence junctions
- C. rodentium infection and systemic spread (Citrobacter rodentium [5]; [13]): severe C. rodentium infection and systemic translocation
- epithelial proliferation or cell death [6]: not affected

Compound: insulin
- serum glucose levels ([2]; STZ-treated mice, 0.25 U per day insulin via pumps for 4 weeks): restored normoglycemic levels
- taxonomic change in the configuration of the intestinal microbiota (intestinal microbiota): corrected
- loss of adherence junction integrity ([4]; STZ-treated mice given the agent): prevented
- systemic dissemination of microbial products [7]: prevented
- enhanced C. rodentium growth and pathogenic translocation / host defense against C. rodentium (Citrobacter rodentium [5]; STZ-treated mice given the agent (insulin 0.25 U per day; 2-DG i.p. twice daily 5 mg)): prevented

Compound: NCCc1c[nH]cn1 [histamine]
- focal adhesions size [8]: increase of focal adhesions size
- apical actin-enriched structures (Caco2 cells [9]): assembly of actin fibers in the same plane where tight junctions are located
- recovery of the TJs after washout ([10]; CaCo2 cells pretreated 24 hrs with disruptor, then regular culture medium for 24 hours): nearly complete recovery of the TJs
- TJ structure after disruptor treatment ([10]; CaCo2 cells, 24 hrs, LPS 300 ng/ml, Histamine 10 mM, putrescine 1 mM): pronounced TJ disruption
- effect on tight junctions in metabolite screen ([10]; Caco2 cells): Disruption
- tight junction disruption phenotype (type 1 zipper-like, type 2 flower-like) ([10]; Caco2 cells, known IBD mediators): type 2
- tight junction morphology ([10]; Caco2 cells, 10 mM acetyl-proline, 1 mM putrescine, 10 mM histamine, 5 mM spermine): distortion of tight junctions geometry; also recorded: distortion of tight junction morphology
- tight junction phenotype in combination with LPS ([10]; Caco2 cells, type 2 disruptor plus LPS): double effect
- forces applied to the substrate (cell contractility) (Caco2 cells [11]): increases cell contractility

Compound: NCCS(=O)(=O)O [taurine]
- disruptive effect of putrescine in mice with C. rodentium infection (Citrobacter rodentium [12]): restoration of the disruptive effect of putrescine
- recovery of TJ structure on replacement of disruptors with stabilizer ([10]; CaCo2 cells pretreated with LPS, histamine or putrescine, even in the presence of the disruptors): full recovery of TJ structure
- effect on tight junctions in metabolite screen ([10]; Caco2 cells): Stabilization
- tight junction distortion caused by LPS ([10]; Caco2 cells, 10 mM taurine, 1 mM tryptamine, 10 mM L-homo-serine, in combination with LPS): abolish tight junction distortion caused by LPS treatment alone
